Key:
RPE65 = target: T1, RPE65 (Mus musculus, UniProt Q91ZQ5); assay: Chromophore regeneration after photobleach, HPLC retinoid profile; type: in vivo, BALB/cJ mice
T1 construct: from tissue; host or cells: eyes of living BALB/cJ mice
T1 sequence (Q91ZQ5 1-533): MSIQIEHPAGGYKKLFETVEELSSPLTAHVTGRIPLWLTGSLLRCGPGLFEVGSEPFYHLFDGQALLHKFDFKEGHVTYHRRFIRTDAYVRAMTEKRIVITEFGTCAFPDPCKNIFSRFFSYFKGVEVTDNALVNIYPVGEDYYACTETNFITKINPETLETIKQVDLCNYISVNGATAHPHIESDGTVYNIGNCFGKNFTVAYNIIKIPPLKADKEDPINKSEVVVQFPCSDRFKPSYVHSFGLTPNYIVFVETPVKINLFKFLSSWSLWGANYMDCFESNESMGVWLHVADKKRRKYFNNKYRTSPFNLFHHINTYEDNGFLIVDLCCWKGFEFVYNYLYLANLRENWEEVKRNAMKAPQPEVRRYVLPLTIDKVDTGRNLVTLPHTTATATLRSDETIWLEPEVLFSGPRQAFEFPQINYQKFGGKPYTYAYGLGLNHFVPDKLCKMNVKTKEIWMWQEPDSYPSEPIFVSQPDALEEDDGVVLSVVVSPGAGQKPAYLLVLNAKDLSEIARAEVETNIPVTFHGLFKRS
Procedure: FIG. 4. Systemic injection of inhibitor RPE65-61 delays chromophore regeneration in BALB/cJ mice. Dark-adapted mice were injected with varying amounts of RPE65-61, and subjected to light-adaptation under 5000 lx of fluorescent light for 30 min. The eyes were harvested for HPLC retinoid profiling after 30 min of dark-adaptation, to measure levels of (FIG. 4A) 11-cis-RAL, (FIG. 4B) all-trans-RAL, and (FIG. 4C) all-transretinyl ester. (FIG. 4D) schematic representation of experimental design for RPE65-61 in vivo. Student's t-test. *P<0.05, **<0.01 and ***<0.001. (Mean±SEM).
Dark-adapted or light-exposed mice were sacrificed, and their eyes enucleated under dim red light. The whole eyes were homogenized with a glass grinder in lysis buffer [10 mM NH2OH, 50% ethanol, […] 2-(N-morpholino) ethanesulfonic acid, pH 6.5], incubated for 1 hr, and retinoids were extracted with hexane.
The ability of RPE65-61 to inhibit RPE65 in vivo was also investigated by determining chromophore regeneration after bleaching with 5,000 lux fluorescent light for 30 min. (FIG. 4).

VAP-1 = target: T2, VAP-1 (Homo sapiens, UniProt Q16853); assay: in vitro; settings: both, plasma, pH 7.4
T2 sequence (Q16853 29-763 limits assumed): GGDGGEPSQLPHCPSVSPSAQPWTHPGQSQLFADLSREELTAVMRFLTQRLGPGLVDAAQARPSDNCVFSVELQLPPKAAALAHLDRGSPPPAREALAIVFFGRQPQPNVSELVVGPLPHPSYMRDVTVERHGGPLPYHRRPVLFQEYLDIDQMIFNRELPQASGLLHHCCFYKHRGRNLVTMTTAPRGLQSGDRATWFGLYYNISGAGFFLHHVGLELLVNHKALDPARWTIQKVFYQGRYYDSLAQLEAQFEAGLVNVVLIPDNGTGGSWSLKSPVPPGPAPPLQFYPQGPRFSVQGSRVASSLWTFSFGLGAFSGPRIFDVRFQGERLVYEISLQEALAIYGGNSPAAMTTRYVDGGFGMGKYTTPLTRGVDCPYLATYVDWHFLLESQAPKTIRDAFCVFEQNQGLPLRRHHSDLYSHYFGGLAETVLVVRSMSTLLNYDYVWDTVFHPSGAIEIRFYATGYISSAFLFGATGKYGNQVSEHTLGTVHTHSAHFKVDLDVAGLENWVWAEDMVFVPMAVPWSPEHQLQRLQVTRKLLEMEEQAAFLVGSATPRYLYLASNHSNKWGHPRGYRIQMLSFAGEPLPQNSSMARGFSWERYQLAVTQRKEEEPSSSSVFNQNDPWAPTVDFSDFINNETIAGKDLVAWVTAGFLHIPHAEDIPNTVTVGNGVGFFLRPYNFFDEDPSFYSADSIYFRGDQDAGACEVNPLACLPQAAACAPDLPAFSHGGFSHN
Procedure: Studies were carried out in mixed-gender human plasma (Lot #HMN330460) and male Beagle dog plasma (Lot #BGL118112), obtained from BioIVT and collected on sodium heparin. Plasma was adjusted to pH 7.4 prior to initiating the experiments. DMSO stocks were first prepared for the test articles. Aliquots of the DMSO solutions were dosed into 1 mL of plasma, which had been pre-warmed to 37° C., at a final test article concentration of 1 μM. The vials were kept in a benchtop Thermomixer® for the duration of the experiment. Aliquots (100 μL) were taken at each time point (0, 15, 30, 60, and 120 minutes) and added to 96-well plates, which had been pre-filled with 300 μL of acetonitrile (ACN). Samples were stored at 4° C. until the end of the experiment. After the final time point was sampled, the plate was mixed and then centrifuged at 3,000 rpm for 10 minutes. Aliquots of the supernatant were removed, diluted 1:1 into distilled water, and analyzed by LC-MS/MS. The peak area response ratio to internal standard (PARR) was compared to the PARR at time 0 to determine the percent of test article remaining at each time point. Half-lives were calculated using GraphPad software, fitting to a single-phase exponential decay equation.

inhibition of 11-cis-retinal regeneration after photobleaching compared with CU-239 (RPE65; mouse, in vivo): higher potency
half-life at 1 μM (VAP-1): > 2 h
Structure (SMILES): N=S(=O)(CCN)c1cccc(OCC2CCCCC2)c1 (racemic) [RPE65-61, (±)-(2-aminoethyl) (3-(cyclohexylmethoxy)phenyl) (imino)-λ^6-sulfanone]
chromophore regeneration after photobleach (RPE65; 0.5, 1 or 2 mg/kg injected, 5,000 lux 30 min): delayed chromophore regeneration after photobleach in a dose-dependent manner
retinyl ester levels in treated mice (RPE65; mouse, in vivo): accumulate higher levels of retinyl esters

Source: patent US20240245647A1, “ISOMEROHYDROLASE INHIBITOR FOR TREATMENT OF ATROPHIC FORM OF AGE-RELATED MACULAR DEGENERATION AND STARGARDT DISEASE” (The Trustees of Columbia University in the City of New York, priority 2021, published 2024)
